Laboratory results as given in US10710978B2, “STK4 inhibitors for treatment of hematologic malignancies” (Dana-Farber Cancer Institute, Inc., priority 2015, dated 2020).
Like-named read-outs stand apart in the source and are kept apart here.

What was measured:
Experiment in all cases: KiNativ assay
Assay type in all cases: binding
PAN3 = PAN3 (Homo sapiens (Human), UniProt Q58A45); settings: H929 live cell
Experimental: (§1) Biochemical IC50s of the compounds of the present disclosure against various kinases were measured in a KiNativ assay. Compounds were screened in duplicate at 10 μM in H929 live cell. IC50 was measured via Mass spectroscopy (MS).

PITSLRE = settings: H929 live cell; for % inhibition: 10 μM, range class
Experimental: as §1

MAP2K1 = MAP2K1 (Homo sapiens (Human), UniProt Q02750); settings: H929 live cell
Experimental: as §1

TBK1 = TBK1 (Homo sapiens (Human), UniProt Q9UHD2); settings: H929 live cell
Experimental: as §1

GCK = GCK (Homo sapiens (Human), UniProt Q12851); settings: H929 live cell
Experimental: as §1

NEK9 = NEK9 (Homo sapiens (Human), UniProt Q8TD19); settings: H929 live cell
Experimental: as §1

PKN1 = PKN1 (Homo sapiens (Human), UniProt Q16512); settings: H929 live cell
Experimental: as §1

SRPK2 = SRPK2 (Homo sapiens (Human), UniProt P78362); settings: H929 live cell
Experimental: as §1

RSKL1 = RSKL1 (Homo sapiens (Human), UniProt Q96S38); settings: H929 live cell
Experimental: as §1

ATR = ATR (Homo sapiens (Human), UniProt Q13535); settings: H929 live cell
Experimental: as §1

TLK2 = TLK2 (Homo sapiens (Human), UniProt Q86UE8); settings: H929 live cell
Experimental: as §1

MAP2K4 = MAP2K4 (Homo sapiens (Human), UniProt P45985); settings: H929 live cell
Experimental: as §1

RSK2 domain2 = RSK2 domain2 (Homo sapiens (Human), UniProt P51812); settings: H929 live cell
Experimental: as §1

CK1g3 = CK1g3 (Homo sapiens (Human), UniProt Q9Y6M4); settings: H929 live cell
Experimental: as §1

TAO2 = TAO2 (Homo sapiens (Human), UniProt Q9UL54); settings: H929 live cell
Experimental: as §1

MASTL = MASTL (Homo sapiens (Human), UniProt Q96GX5); settings: H929 live cell
Experimental: as §1

LOK = LOK (Homo sapiens (Human), UniProt O94804); settings: H929 live cell
Experimental: as §1

Erk1 = Erk1 (Homo sapiens (Human), UniProt P27361); settings: H929 live cell
Experimental: as §1

CK1a = CK1a (Homo sapiens (Human), UniProt P48729); settings: H929 live cell
Experimental: as §1

[1] = test system: RSK1 domain1, RSK2 domain1, RSK3 domain1; settings: H929 live cell; for % inhibition: 10 μM, range class
Experimental: as §1

CDK2 = CDK2 (Homo sapiens (Human), UniProt P24941); settings: H929 live cell
Experimental: as §1

PIP5K3 = PIP5K3 (Homo sapiens (Human), UniProt Q9Y2I7); settings: H929 live cell
Experimental: as §1

RSK2 domain1 = RSK2 domain1 (Homo sapiens (Human), UniProt P51812); settings: H929 live cell
Experimental: as §1

CHK1 = CHK1 (Homo sapiens (Human), UniProt O14757); settings: H929 live cell
Experimental: as §1

MST4 = settings: H929 live cell; for % inhibition: 10 μM, range class
Experimental: as §1

FYN, SRC, YES = settings: H929 live cell; for % inhibition: 10 μM, range class
Experimental: as §1

MST1, MST2 = settings: H929 live cell; for % inhibition: 10 μM, range class
Experimental: as §1

ACK = ACK (Homo sapiens (Human), UniProt Q07912); settings: H929 live cell
Experimental: as §1

MAPKAPK2, MAPKAPK3 = settings: H929 live cell; for % inhibition: 10 μM, range class
Experimental: as §1

NDR2 = NDR2 (Homo sapiens (Human), UniProt Q9Y2H1); settings: H929 live cell
Experimental: as §1

AurA, AurB, AurC = settings: H929 live cell; for % inhibition: 10 μM, range class
Experimental: as §1

MST4, YSK1 = settings: H929 live cell; for % inhibition: 10 μM, range class
Experimental: as §1

STLK6 = STLK6 (Homo sapiens (Human), UniProt Q9C0K7); settings: H929 live cell
Experimental: as §1

PIP4K2C = PIP4K2C (Homo sapiens (Human), UniProt Q8TBX8); settings: H929 live cell
Experimental: as §1

[2] = range class, read-out: % inhibition

Sequence of CK1a (P48729 whole entry): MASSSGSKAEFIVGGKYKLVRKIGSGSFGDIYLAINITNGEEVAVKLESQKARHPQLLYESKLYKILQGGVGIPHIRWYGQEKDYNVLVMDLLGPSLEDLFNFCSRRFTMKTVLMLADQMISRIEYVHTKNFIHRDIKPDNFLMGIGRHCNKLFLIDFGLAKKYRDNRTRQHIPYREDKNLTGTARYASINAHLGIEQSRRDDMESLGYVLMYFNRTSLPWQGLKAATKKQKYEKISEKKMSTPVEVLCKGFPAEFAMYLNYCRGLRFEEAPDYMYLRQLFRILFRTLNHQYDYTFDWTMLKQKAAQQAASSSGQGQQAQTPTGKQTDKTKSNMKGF
Sequence of NEK9 (Q8TD19 whole entry): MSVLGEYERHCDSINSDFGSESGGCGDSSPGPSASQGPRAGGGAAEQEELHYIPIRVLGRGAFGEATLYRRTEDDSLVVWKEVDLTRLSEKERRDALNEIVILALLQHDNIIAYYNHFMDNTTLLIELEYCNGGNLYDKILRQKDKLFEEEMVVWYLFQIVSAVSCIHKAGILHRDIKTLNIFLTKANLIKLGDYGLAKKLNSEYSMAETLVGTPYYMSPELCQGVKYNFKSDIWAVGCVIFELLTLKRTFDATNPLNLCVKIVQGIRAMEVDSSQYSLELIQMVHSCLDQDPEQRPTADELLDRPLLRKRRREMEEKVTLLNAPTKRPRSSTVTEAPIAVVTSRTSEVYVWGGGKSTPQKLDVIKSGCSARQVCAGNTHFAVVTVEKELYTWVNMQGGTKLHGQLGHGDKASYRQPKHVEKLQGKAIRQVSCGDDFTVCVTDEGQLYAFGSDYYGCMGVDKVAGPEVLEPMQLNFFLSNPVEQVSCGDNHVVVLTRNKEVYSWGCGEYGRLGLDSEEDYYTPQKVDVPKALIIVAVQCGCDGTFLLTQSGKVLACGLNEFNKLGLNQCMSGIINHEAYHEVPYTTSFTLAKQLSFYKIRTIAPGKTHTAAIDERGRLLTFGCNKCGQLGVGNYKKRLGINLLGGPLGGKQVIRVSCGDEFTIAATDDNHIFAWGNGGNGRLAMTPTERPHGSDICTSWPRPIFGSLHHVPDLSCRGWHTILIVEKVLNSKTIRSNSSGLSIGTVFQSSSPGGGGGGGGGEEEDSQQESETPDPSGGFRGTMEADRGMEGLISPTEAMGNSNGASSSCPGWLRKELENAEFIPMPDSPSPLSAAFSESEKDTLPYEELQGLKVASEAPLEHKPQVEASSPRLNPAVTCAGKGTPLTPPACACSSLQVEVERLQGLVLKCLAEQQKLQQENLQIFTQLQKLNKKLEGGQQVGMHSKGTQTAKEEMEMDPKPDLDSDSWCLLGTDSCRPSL
Sequence of CHK1 (O14757 whole entry): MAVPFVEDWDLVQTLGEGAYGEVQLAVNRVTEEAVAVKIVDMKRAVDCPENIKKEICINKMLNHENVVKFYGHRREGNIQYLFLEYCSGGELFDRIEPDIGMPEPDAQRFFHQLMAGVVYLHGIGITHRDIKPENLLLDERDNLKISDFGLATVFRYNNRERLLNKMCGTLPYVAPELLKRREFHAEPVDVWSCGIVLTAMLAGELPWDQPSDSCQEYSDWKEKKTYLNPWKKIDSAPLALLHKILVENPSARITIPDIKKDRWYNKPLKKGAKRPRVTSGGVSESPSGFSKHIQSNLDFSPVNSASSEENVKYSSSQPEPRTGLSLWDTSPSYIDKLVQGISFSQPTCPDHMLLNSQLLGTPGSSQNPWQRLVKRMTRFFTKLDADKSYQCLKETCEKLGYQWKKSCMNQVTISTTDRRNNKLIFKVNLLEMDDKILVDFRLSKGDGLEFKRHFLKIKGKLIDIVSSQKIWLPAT
Sequence of NDR2 (Q9Y2H1 whole entry): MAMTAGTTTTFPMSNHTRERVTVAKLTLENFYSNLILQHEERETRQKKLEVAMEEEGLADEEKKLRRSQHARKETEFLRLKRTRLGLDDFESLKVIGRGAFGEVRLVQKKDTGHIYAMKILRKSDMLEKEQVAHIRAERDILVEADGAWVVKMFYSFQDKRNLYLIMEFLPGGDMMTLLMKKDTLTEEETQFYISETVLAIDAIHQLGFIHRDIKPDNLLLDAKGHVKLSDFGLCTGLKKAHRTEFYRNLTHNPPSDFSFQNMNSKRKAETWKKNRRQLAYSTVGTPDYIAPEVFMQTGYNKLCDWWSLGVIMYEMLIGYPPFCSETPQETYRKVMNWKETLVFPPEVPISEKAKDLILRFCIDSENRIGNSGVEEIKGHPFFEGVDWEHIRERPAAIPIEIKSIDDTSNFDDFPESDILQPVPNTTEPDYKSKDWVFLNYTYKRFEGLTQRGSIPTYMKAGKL
Sequence of ACK (Q07912 whole entry): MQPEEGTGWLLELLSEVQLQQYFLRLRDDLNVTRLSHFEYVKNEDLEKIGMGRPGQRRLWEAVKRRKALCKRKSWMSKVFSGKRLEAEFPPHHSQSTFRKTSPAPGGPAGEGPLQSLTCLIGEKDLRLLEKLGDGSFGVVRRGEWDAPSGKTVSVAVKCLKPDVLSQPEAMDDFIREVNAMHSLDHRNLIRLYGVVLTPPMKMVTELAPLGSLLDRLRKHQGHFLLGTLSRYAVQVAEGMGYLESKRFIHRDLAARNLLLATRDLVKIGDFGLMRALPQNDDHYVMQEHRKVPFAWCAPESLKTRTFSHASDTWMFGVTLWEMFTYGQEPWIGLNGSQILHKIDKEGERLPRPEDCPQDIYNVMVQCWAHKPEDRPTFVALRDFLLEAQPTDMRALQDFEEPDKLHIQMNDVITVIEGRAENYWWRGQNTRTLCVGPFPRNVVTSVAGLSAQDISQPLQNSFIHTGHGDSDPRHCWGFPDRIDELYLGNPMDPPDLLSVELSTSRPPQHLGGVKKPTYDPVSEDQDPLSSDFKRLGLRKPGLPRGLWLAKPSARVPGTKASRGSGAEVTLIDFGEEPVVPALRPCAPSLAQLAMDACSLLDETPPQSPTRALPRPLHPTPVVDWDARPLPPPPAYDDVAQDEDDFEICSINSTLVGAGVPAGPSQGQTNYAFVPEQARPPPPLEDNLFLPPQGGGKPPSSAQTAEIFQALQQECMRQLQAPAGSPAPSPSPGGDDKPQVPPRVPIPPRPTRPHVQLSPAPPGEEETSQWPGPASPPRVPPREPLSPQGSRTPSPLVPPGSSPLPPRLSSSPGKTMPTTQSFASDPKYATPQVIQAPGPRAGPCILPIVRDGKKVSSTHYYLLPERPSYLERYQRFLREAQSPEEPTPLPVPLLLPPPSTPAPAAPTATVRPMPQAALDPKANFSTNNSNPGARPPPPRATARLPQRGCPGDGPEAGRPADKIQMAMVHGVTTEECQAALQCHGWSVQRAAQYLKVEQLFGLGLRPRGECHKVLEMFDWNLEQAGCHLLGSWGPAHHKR
Sequence of RSKL1 (Q96S38 whole entry): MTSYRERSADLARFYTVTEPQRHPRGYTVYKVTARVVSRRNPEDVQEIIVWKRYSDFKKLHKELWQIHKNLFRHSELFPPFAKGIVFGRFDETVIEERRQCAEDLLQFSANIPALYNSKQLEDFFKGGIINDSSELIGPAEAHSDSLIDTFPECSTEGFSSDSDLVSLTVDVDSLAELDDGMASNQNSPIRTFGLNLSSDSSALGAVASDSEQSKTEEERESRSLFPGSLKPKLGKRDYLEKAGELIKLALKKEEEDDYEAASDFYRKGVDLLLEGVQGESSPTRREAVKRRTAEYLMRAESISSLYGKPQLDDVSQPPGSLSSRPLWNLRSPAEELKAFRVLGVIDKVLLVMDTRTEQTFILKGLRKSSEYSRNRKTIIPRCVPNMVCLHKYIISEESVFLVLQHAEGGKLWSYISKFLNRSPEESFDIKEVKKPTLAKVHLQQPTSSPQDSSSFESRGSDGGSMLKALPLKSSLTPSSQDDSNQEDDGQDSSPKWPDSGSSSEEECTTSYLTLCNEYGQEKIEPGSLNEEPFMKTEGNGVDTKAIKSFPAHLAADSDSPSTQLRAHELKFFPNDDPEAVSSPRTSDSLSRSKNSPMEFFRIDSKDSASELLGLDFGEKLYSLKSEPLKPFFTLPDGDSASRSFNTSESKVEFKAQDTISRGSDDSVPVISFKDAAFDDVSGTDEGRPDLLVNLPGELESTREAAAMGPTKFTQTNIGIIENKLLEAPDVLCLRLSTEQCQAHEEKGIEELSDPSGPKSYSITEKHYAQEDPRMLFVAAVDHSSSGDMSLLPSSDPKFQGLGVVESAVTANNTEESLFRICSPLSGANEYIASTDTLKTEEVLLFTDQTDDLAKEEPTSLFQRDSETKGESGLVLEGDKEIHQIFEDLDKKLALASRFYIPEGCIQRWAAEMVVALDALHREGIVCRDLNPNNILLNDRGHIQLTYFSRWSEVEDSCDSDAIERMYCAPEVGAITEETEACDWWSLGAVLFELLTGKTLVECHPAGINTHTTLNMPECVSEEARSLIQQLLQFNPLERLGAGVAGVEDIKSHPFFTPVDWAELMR
Sequence of SRPK2 (P78362 whole entry): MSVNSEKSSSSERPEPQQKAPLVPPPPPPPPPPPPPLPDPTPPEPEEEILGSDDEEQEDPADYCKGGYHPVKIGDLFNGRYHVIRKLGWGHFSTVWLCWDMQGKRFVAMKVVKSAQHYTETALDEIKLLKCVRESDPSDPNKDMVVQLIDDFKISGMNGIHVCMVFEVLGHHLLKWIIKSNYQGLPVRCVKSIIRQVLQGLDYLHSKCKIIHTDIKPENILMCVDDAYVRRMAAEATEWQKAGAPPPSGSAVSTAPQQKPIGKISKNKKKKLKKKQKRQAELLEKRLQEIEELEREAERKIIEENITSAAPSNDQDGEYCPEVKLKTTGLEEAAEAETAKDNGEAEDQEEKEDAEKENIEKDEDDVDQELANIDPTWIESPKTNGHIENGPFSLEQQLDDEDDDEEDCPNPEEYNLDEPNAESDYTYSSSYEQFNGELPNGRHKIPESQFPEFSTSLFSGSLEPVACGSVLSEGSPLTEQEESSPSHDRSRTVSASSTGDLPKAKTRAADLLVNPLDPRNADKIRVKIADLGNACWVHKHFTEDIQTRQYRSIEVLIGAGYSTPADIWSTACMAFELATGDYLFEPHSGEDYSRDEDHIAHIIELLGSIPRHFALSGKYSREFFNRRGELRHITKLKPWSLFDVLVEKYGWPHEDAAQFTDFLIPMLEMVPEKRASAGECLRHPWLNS

## Nc1ncc(-c2ccc(NS(=O)(=O)C3CC3)cc2F)cc1-c1ccc2c(c1)CCNC2=O [Compound I-51, N-(4-(6-amino-5-(1-oxo-1,2,3,4-tetrahydroisoquinolin-6-yl)pyridin-3-yl)-3-fluorophenyl) cyclopropanesulfonamide]
PAN3; [2]
  inhibition at 10 µM: 0%
PAN3; read-out: inhibition (10 μM)
  inhibition at 10 µM: -39.1%
PITSLRE
  % inhibition: 0.0%
  inhibition (10 μM): −20.2%
MAP2K1; [2]
  inhibition at 10 µM: 0%
MAP2K1; read-out: inhibition (10 μM)
  inhibition at 10 µM: -26.2%
TBK1; [2]
  inhibition at 10 µM: 35 to 40%
TBK1; read-out: inhibition (10 μM)
  inhibition at 10 µM: 35.8%
GCK; [2]
  inhibition at 10 µM: > 90%
GCK; read-out: inhibition (10 μM)
  inhibition at 10 µM: 93.9%
NEK9; [2]
  inhibition at 10 µM: 0%
NEK9; read-out: inhibition (10 μM)
  inhibition at 10 µM: -20.8%
PKN1; [2]
  inhibition at 10 µM: 0%
PKN1; read-out: inhibition (10 μM)
  inhibition at 10 µM: -72.1%
SRPK2; [2]
  inhibition at 10 µM: 0%
SRPK2; read-out: inhibition (10 μM)
  inhibition at 10 µM: -41%
RSKL1; [2]
  inhibition at 10 µM: 0%
RSKL1; read-out: inhibition (10 μM)
  inhibition at 10 µM: -22.1%
ATR; [2]
  inhibition at 10 µM: 0%
ATR; read-out: inhibition (10 μM)
  inhibition at 10 µM: 15%
TLK2; [2]
  inhibition at 10 µM: 0%
TLK2; read-out: inhibition (10 μM)
  inhibition at 10 µM: -20.1%
MAP2K4; [2]
  inhibition at 10 µM: 35 to 40%
MAP2K4; read-out: inhibition (10 μM)
  inhibition at 10 µM: 44.2%
RSK2 domain2; [2]
  inhibition at 10 µM: 0%
RSK2 domain2; read-out: inhibition (10 μM)
  inhibition at 10 µM: 9.9%
CK1g3; [2]
  inhibition at 10 µM: 75 to 90%
CK1g3; read-out: inhibition (10 μM)
  inhibition at 10 µM: 88.2%
TAO2; [2]
  inhibition at 10 µM: 35 to 40%
TAO2; read-out: inhibition (10 μM)
  inhibition at 10 µM: 40.9%
MASTL; [2]
  inhibition at 10 µM: 0%
MASTL; read-out: inhibition (10 μM)
  inhibition at 10 µM: 14.6%
LOK; [2]
  inhibition at 10 µM: > 90%
LOK; read-out: inhibition (10 μM)
  inhibition at 10 µM: 96.9%
Erk1; [2]
  inhibition at 10 µM: 0%
Erk1; read-out: inhibition (10 μM)
  inhibition at 10 µM: 29.2%
CK1a; [2]
  inhibition at 10 µM: 0%
CK1a; read-out: inhibition (10 μM)
  inhibition at 10 µM: -34.7%
[1]
  % inhibition: 0.0%
  inhibition (10 μM): 25.8%
CDK2; [2]
  inhibition at 10 µM: 35 to 40%
CDK2; read-out: inhibition (10 μM)
  inhibition at 10 µM: 35%
PIP5K3; [2]
  inhibition at 10 µM: 75 to 90%
PIP5K3; read-out: inhibition (10 μM)
  inhibition at 10 µM: 84.7%
RSK2 domain1; [2]
  inhibition at 10 µM: 35 to 40%
RSK2 domain1; read-out: inhibition (10 μM)
  inhibition at 10 µM: 49.9%
CHK1; [2]
  inhibition at 10 µM: 0%
CHK1; read-out: inhibition (10 μM)
  inhibition at 10 µM: -20.1%
MST4
  % inhibition: 0.0%
  inhibition (10 μM): 33.9%
FYN, SRC, YES
  % inhibition: 0.0%
  inhibition (10 μM): −36.4%
MST1, MST2
  % inhibition: >90%
  inhibition (10 μM): 98.4%
ACK; [2]
  inhibition at 10 µM: 0%
ACK; read-out: inhibition (10 μM)
  inhibition at 10 µM: -39%
MAPKAPK2, MAPKAPK3
  % inhibition: 0.0%
  inhibition (10 μM): −65.2%
NDR2; [2]
  inhibition at 10 µM: 0%
NDR2; read-out: inhibition (10 μM)
  inhibition at 10 µM: 8.4%
AurA, AurB, AurC
  % inhibition: 50-75%
  inhibition (10 μM): 53.2%
MST4, YSK1
  % inhibition: 50-75%
  inhibition (10 μM): 68.1%
STLK6; [2]
  inhibition at 10 µM: 0%
STLK6; read-out: inhibition (10 μM)
  inhibition at 10 µM: -15%
PIP4K2C; [2]
  inhibition at 10 µM: 75 to 90%
PIP4K2C; read-out: inhibition (10 μM)
  inhibition at 10 µM: 85.4%

## Nc1ncc(-c2ccc(NS(=O)(=O)C3CC3)cc2OC2CCCCC2)cc1-c1ccc2c(c1)CCNC2=O [Compound I-65, N-(4-(6-amino-5-(1-oxo-1,2,3,4-tetrahydroisoquinolin-6-yl)pyridin-3-yl)-3-(cyclohexyloxy)phenyl) cyclopropanesulfonamide]
PAN3; [2]
  inhibition at 10 µM: 0%
PAN3; read-out: inhibition (10 μM)
  inhibition at 10 µM: 5.8%
PITSLRE
  % inhibition: 0.0%
  inhibition (10 μM): −17.5%
MAP2K1; [2]
  inhibition at 10 µM: 0%
MAP2K1; read-out: inhibition (10 μM)
  inhibition at 10 µM: 21.2%
TBK1; [2]
  inhibition at 10 µM: 50 to 75%
TBK1; read-out: inhibition (10 μM)
  inhibition at 10 µM: 74.6%
GCK; [2]
  inhibition at 10 µM: > 90%
GCK; read-out: inhibition (10 μM)
  inhibition at 10 µM: 92.5%
NEK9; [2]
  inhibition at 10 µM: 0%
NEK9; read-out: inhibition (10 μM)
  inhibition at 10 µM: -27.8%
PKN1; read-out: inhibition (10 μM)
  inhibition at 10 µM: 35.9%
SRPK2; [2]
  inhibition at 10 µM: 0%
SRPK2; read-out: inhibition (10 μM)
  inhibition at 10 µM: -29.4%
RSKL1; [2]
  inhibition at 10 µM: 0%
RSKL1; read-out: inhibition (10 μM)
  inhibition at 10 µM: -10.6%
ATR; [2]
  inhibition at 10 µM: 0%
ATR; read-out: inhibition (10 μM)
  inhibition at 10 µM: 28.1%
TLK2; [2]
  inhibition at 10 µM: 0%
TLK2; read-out: inhibition (10 μM)
  inhibition at 10 µM: -3.5%
MAP2K4; [2]
  inhibition at 10 µM: 0%
MAP2K4; read-out: inhibition (10 μM)
  inhibition at 10 µM: -15.3%
RSK2 domain2; [2]
  inhibition at 10 µM: 0%
RSK2 domain2; read-out: inhibition (10 μM)
  inhibition at 10 µM: 7.2%
CK1g3; [2]
  inhibition at 10 µM: 75 to 90%
CK1g3; read-out: inhibition (10 μM)
  inhibition at 10 µM: 87.2%
TAO2; [2]
  inhibition at 10 µM: 0%
TAO2; read-out: inhibition (10 μM)
  inhibition at 10 µM: 8.3%
MASTL; [2]
  inhibition at 10 µM: 0%
MASTL; read-out: inhibition (10 μM)
  inhibition at 10 µM: -9.6%
LOK; [2]
  inhibition at 10 µM: > 90%
LOK; read-out: inhibition (10 μM)
  inhibition at 10 µM: 98.7%
Erk1; [2]
  inhibition at 10 µM: 0%
Erk1; read-out: inhibition (10 μM)
  inhibition at 10 µM: -30.7%
CK1a; [2]
  inhibition at 10 µM: 0%
CK1a; read-out: inhibition (10 μM)
  inhibition at 10 µM: -65.1%
[1]
  % inhibition: 50-75%
  inhibition (10 μM): 68.4%
CDK2; [2]
  inhibition at 10 µM: 0%
CDK2; read-out: inhibition (10 μM)
  inhibition at 10 µM: 21.6%
PIP5K3; [2]
  inhibition at 10 µM: > 90%
PIP5K3; read-out: inhibition (10 μM)
  inhibition at 10 µM: 91.7%
RSK2 domain1; [2]
  inhibition at 10 µM: 75 to 90%
RSK2 domain1; read-out: inhibition (10 μM)
  inhibition at 10 µM: 79.4%
CHK1; [2]
  inhibition at 10 µM: 0%
CHK1; read-out: inhibition (10 μM)
  inhibition at 10 µM: -16%
MST4
  % inhibition: 35-40%
  inhibition (10 μM): 47.7%
FYN, SRC, YES
  % inhibition: 0.0%
  inhibition (10 μM): −8.4%
MST1, MST2
  % inhibition: >90%
  inhibition (10 μM): 98.7%
ACK; [2]
  inhibition at 10 µM: 0%
ACK; read-out: inhibition (10 μM)
  inhibition at 10 µM: 30.7%
MAPKAPK2, MAPKAPK3
  % inhibition: 0.0%
  inhibition (10 μM): −52.2%
NDR2; [2]
  inhibition at 10 µM: 0%
NDR2; read-out: inhibition (10 μM)
  inhibition at 10 µM: -8.7%
AurA, AurB, AurC
  % inhibition: 35-40%
  inhibition (10 μM): 42.9%
MST4, YSK1
  % inhibition: 35-40%
  inhibition (10 μM): 46.3%
STLK6; [2]
  inhibition at 10 µM: 0%
STLK6; read-out: inhibition (10 μM)
  inhibition at 10 µM: -15.9%
PIP4K2C; [2]
  inhibition at 10 µM: > 90%
PIP4K2C; read-out: inhibition (10 μM)
  inhibition at 10 µM: 90.2%
